Key:
[1] = test system: myocardial adenine nucleotides; settings: cited from earlier work
rat heart preparations = experiment: tissue PRPP concentration of rat heart preparations in anoxic conditions; settings: ribose added to the medium
Source text: Perhaps of greater significance was our observation of the decline in cellular PRPP in a range of tissues, including heart, in experimental diabetes (see Table 1).

IPG P-type = experiment: extractable IPG P-type from tissues before and after insulin (PDH phosphatase assay); type: in vivo, rats; settings: 2 minutes after injection with insulin
Procedure: FIGS. 4C and 4D show the steady state concentration and the effect of insulin on extractable IPG P-type from heart and other tissues from adult male rats. […] The solid columns show results in the absence of insulin, while the hatched columns show results 2 minutes after injection with insulin. 1 unit is the amount of P-type IPG causing a 50% increase in the activity of PDH phosphatase or a 50% decrease in the activity of cAMP dependent protein kinase.
Under anoxic conditions, this is difficult since the enzyme PDH kinase is activated. The action of this enzyme is to inactivate the PDH complex, which is involved in the biosynthesis of acetyl-CoA and NADH. The NADH so generated in the reperfusion period is oxidized by the electron transport chain to generate ATP. The acetyl-CoA is a substrate for the Krebs cycle in which one glucose can be oxidized to 36 ATPs via the generation of further NADH. The action of IPG-P type mediators is to activate PDH phosphatase which counteracts the PDH kinase and allows for activation of the PDH complex.

IPG P-type activity recovered from tissue upon insulin infusion (IPG P-type; adipose tissue) | IPG P-type activity recovered from tissue upon insulin infusion (IPG P-type; brain) | IPG P-type activity recovered from tissue upon insulin infusion (IPG P-type; heart) | IPG P-type activity recovered from tissue upon insulin infusion (IPG P-type; kidney) | IPG P-type activity recovered from tissue upon insulin infusion (IPG P-type; muscle) | Molecule | restitution of myocardial adenine nucleotides ([1]; Zimmer (1980)) | global heart function ([1]; overloaded and catecholamine-stimulated heart and infarcted heart rat models, Zimmer (1996)) | normalisation of depressed heart function ([1]; rats, Zimmer (1983)) | tissue PRPP concentration (rat heart preparations)
 |  |  |  |  | O=C[C@H](O)[C@H](O)[C@H](O)CO [ribose] | accelerated | improvement in global heart function | accelerated | partially restored
decreased activity | decreased activity | decreased activity | increase in activity | increase in activity | insulin |  |  |  | 

Reference: patent US6900182B1, “Inositolphosphoglycan and ribose for treatment of ischaemia-reperfusion injury” (Sylus Pharmaceuticals Ltd., priority 1998, dated 2005)
